Laboratory results published in US9511058B2, “Methods for using carboxamide, sulfonamide and amine compounds” (Rigel Pharmaceuticals, Inc., priority 2010, dated 2016).

Target: AMPK
Assay: AMPK activation, enzyme-linked immunosorbent assay
Assay type: biochemical
Settings: compounds of Table 1 (Table 6)
Procedure: Compounds of Table 1 were assayed for their ability to activate AMPK using an enzyme-linked immunosorbent assay.
Compounds of Table 2 were assayed for their ability to activate AMPK using an enzyme-linked immunosorbent assay.
Compounds of Table 3 were assayed for their ability to activate AMPK using an enzyme-linked immunosorbent assay.
Compounds of Table 4 were assayed for their ability to activate AMPK using an enzyme-linked immunosorbent assay.
Compounds of Table 5 were assayed for their ability to activate AMPK using an enzyme-linked immunosorbent assay.

| SMILES | EC50 |
| --- | --- |
| O=C(NC1CCN(Cc2ccncc2)CC1)c1cccc(OC2CCN(c3ccc(C(F)(F)F)cc3)CC2)n1 [1-43, N-(1-(pyridin-4-ylmethyl)piperidin-4-yl)-6-(1-(4-(trifluoromethyl)phenyl)piperidin-4-yloxy)picolinamide] | 1000 to 5000 nM |
| O=C(NC1CCN(Cc2cncnc2)CC1)c1ccc(OC2CCN(c3ccc(C(F)(F)F)cc3)CC2)cn1 [1-44, N-(1-(pyrimidin-5-ylmethyl)piperidin-4-yl)-5-(1-(4-(trifluoromethyl)phenyl)piperidin-4-yloxy)picolinamide] | 100 to 500 nM |
| COC(=O)c1ccc(CN2CCC(NC(=O)c3ccc(OC4CCN(c5ccc(C(F)(F)F)cc5)CC4)nc3)CC2)cc1 [1-45, methyl 4-((4-(6-(1-(4-(trifluoromethyl)phenyl)piperidin-4-yloxy)nicotinamido)piperidin-1-yl)methyl)benzoate] | > 10000 nM |
| O=C(NC1CCN(Cc2c[nH]cn2)CC1)c1ccc(OC2CCN(c3ccc(C(F)(F)F)cc3)CC2)cn1 [1-48, N-(1-((1H-imidazol-4-yl)methyl)piperidin-4-yl)-5-(1-(4-(trifluoromethyl)phenyl)piperidin-4-yloxy)picolinamide] | 1000 to 5000 nM |
| CC(C)(C)OC(=O)NCCCNC(=O)c1ccc(OC2CCN(c3ccc(C(F)(F)F)cc3)CC2)cn1 [1-49, tert-butyl 3-(5-(1-(4-(trifluoromethyl)phenyl)piperidin-4-yloxy)picolinamido) propylcarbamate] | < 100 nM |
| O=S(=O)(NC1CCN(Cc2ccncc2)CC1)c1ccc(OC2CCN(c3ccc(C(F)(F)F)cc3)CC2)nc1 [1-51, N-(1-(pyridin-4-ylmethyl)piperidin-4-yl)-6-(1-(4-(trifluoromethyl)phenyl)piperidin-4-yloxy)pyridine-3-sulfonamide] | 100 to 500 nM |
| N#Cc1ccc(N2CCC(Oc3ccc(S(=O)(=O)NC4CCN(Cc5ccncc5)CC4)cn3)CC2)cc1 [1-52, N-(1-(pyridin-4-ylmethyl)piperidin-4-yl)-6-(1-(4-cyanophenyl)piperidin-4-yloxy)pyridine-3-sulfonamide] | 100 to 500 nM |
| CC(C)(C)OC(=O)N1CCC(NS(=O)(=O)c2ccc(OC3CCN(c4ccc(C(F)(F)F)cc4)CC3)nc2)CC1 [1-54, tert-butyl 4-(6-(1-(4-(trifluoromethyl)phenyl)piperidin-4-yloxy)pyridine-3-sulfonamido)piperidine-1-carboxylate] | 1000 to 5000 nM |
| O=S(=O)(NC1CCNCC1)c1ccc(OC2CCN(c3ccc(C(F)(F)F)cc3)CC2)nc1 [1-55, N-(piperidin-4-yl)-6-(1-(4-(trifluoromethyl)phenyl)piperidin-4-yloxy)pyridine-3-sulfonamide] | 1000 to 5000 nM |
| O=S(=O)(NC1CCN(Cc2ccc(C(F)(F)F)cc2)CC1)c1ccc(OC2CCN(c3ccc(C(F)(F)F)cc3)CC2)nc1 [1-58, N-(1-(4-(trifluoromethyl)benzyl)piperidin-4-yl)-6-(1-(4-(trifluoromethyl)phenyl)piperidin-4-yloxy)pyridine-3-sulfonamide] | < 100 nM |
| Cc1c(C(=O)NC2CCN(C(=O)OC(C)(C)C)CC2)oc2cc(OC3CCN(c4ccc(C(F)(F)F)cc4)CC3)ccc12 [1-61, tert-butyl 4-(3-methyl-6-(1-(4-(trifluoromethyl)phenyl)piperidin-4-yloxy)benzofuran-2-carboxamido)piperidine-1-carboxylate] | 100 to 500 nM |
| Cc1c(C(=O)NC2CCN(Cc3ccc(F)cc3)CC2)oc2cc(OC3CCN(c4ccc(C(F)(F)F)cc4)CC3)ccc12 [1-63, N-(1-(4-fluorobenzyl)piperidin-4-yl)-3-methyl-6-(1-(4-(trifluoromethyl)phenyl)piperidin-4-yloxy)benzofuran-2-carboxamide] | < 100 nM |
| Cc1c(C(=O)NC2CCN(Cc3ccc(C#N)cc3)CC2)oc2cc(OC3CCN(c4ccc(C(F)(F)F)cc4)CC3)ccc12 [1-64, N-(1-(4-cyanobenzyl)piperidin-4-yl)-3-methyl-6-(1-(4-(trifluoromethyl)phenyl)piperidin-4-yloxy)benzofuran-2-carboxamide] | < 100 nM |
| Cc1c(C(=O)NC2CCN(Cc3ccncc3)CC2)oc2cc(OC3CCN(c4ccc(C(F)(F)F)cc4)CC3)ccc12 [1-65, 3-methyl-N-(1-(pyridin-4-ylmethyl)piperidin-4-yl)-6-(1-(4-(trifluoromethyl)phenyl)piperidin-4-yloxy)benzofuran-2-carboxamide] | < 100 nM |
| Cc1c(C(=O)NC2CCN(Cc3cccc(C#N)c3)CC2)oc2cc(OC3CCN(c4ccc(C(F)(F)F)cc4)CC3)ccc12 [1-66, N-(1-(3-cyanobenzyl)piperidin-4-yl)-3-methyl-6-(1-(4-(trifluoromethyl)phenyl)piperidin-4-yloxy)benzofuran-2-carboxamide] | < 100 nM |

The next lines start with the values.

| EC50 | SMILES |
| --- | --- |
| 500 to 1000 nM | O=C(NC1CCN(Cc2ccc3ccccc3c2)CC1)c1ccc(OC2CCN(c3ccc(C(F)(F)F)cc3)CC2)cn1 [1-37, N-(1-(naphthalen-2-ylmethyl)piperidin-4-yl)-5-(1-(4-(trifluoromethyl)phenyl)piperidin-4-yloxy)picolinamide] |
| 1000 to 5000 nM | O=C(NC1CCN(Cc2ccccc2)CC1)c1ccc(OC2CCN(c3ccc(C(F)(F)F)cc3)CC2)cn1 [1-38, N-(1-benzylpiperidin-4-yl)-5-(1-(4-(trifluoromethyl)phenyl)piperidin-4-yloxy)picolinamide] |
| 100 to 500 nM | CN(C)c1ccc(CN2CCC(NC(=O)c3ccc(OC4CCN(c5ccc(C(F)(F)F)cc5)CC4)cn3)CC2)cc1 [1-39, N-(1-(4-(dimethylamino)benzyl)piperidin-4-yl)-5-(1-(4-(trifluoromethyl)phenyl)piperidin-4-yloxy)picolinamide] |
| < 100 nM | O=C(NC1CCN(Cc2ccc(N3CCOCC3)cc2)CC1)c1ccc(OC2CCN(c3ccc(C(F)(F)F)cc3)CC2)cn1 [1-40, N-(1-(4-morpholinobenzyl)piperidin-4-yl)-5-(1-(4-(trifluoromethyl)phenyl)piperidin-4-yloxy)picolinamide] |
| 100 to 500 nM | N#Cc1ccc(CN2CC(NC(=O)c3ccc(OC4CCN(c5ccc(C(F)(F)F)cc5)CC4)cn3)C2)cc1 [1-41, N-(1-(4-cyanobenzyl)azetidin-3-yl)-5-(1-(4 (trifluoromethyl)phenyl)piperidin-4-yloxy)picolinamide] |
| 1000 to 5000 nM | O=C(NC1CN(Cc2ccncc2)C1)c1ccc(OC2CCN(c3ccc(C(F)(F)F)cc3)CC2)cn1 [1-42, N-(1-(pyridin-4-ylmethyl)azetidin-3-yl)-5-(1-(4-(trifluoromethyl)phenyl)piperidin-4-yloxy)picolinamide] |
| 1000 to 5000 nM | O=C(O)c1ccc(CN2CCC(NC(=O)c3ccc(OC4CCN(c5ccc(C(F)(F)F)cc5)CC4)nc3)CC2)cc1 [1-46, 4-((4-(6-(1-(4-(trifluoromethyl)phenyl)piperidin-4-yloxy)nicotinamido)piperidin-1-yl)methyl)benzoic acid] |
| 1000 to 5000 nM | O=C(NC1CCN(Cc2cn(C(c3ccccc3)(c3ccccc3)c3ccccc3)cn2)CC1)c1ccc(OC2CCN(c3ccc(C(F)(F)F)cc3)CC2)cn1 [1-47, 5-(1-(4-(trifluoromethyl)phenyl)piperidin-4-yloxy)-N-(1-((1-trityl-1H-imidazol-4-yl)methyl)piperidin-4-yl)picolinamide] |
| 1000 to 5000 nM | O=C(NCCCNCc1ccncc1)c1ccc(OC2CCN(c3ccc(C(F)(F)F)cc3)CC2)cn1 [1-50, N-(3-(pyridin-4-ylmethylamino)propyl)-5-(1-(4-(trifluoromethyl)phenyl)piperidin-4-yloxy)picolinamide] |
| 100 to 500 nM | N#Cc1ccc(CN2CCC(Oc3ccc(S(=O)(=O)NC4CCN(Cc5ccncc5)CC4)cn3)CC2)cc1 [1-53, 6-(1-(4-cyanobenzyl)piperidin-4-yloxy)-N-(1-(pyridin-4-ylmethyl)piperidin-4-yl)pyridine-3-sulfonamide] |
| 5000 to 10000 nM | N#Cc1ccc(CN2CCC(NS(=O)(=O)c3ccc(OC4CCN(c5ccc(C(F)(F)F)cc5)CC4)nc3)CC2)cc1 [1-56, N-(1-(4-cyanobenzyl)piperidin-4-yl)-6-(1-(4-(trifluoromethyl)phenyl)piperidin-4-yloxy)pyridine-3-sulfonamide] |
| 500 to 1000 nM | N#Cc1cccc(CN2CCC(NS(=O)(=O)c3ccc(OC4CCN(c5ccc(C(F)(F)F)cc5)CC4)nc3)CC2)c1 [1-57, N-(1-(3-cyanobenzyl)piperidin-4-yl)-6-(1-(4-(trifluoromethyl)phenyl)piperidin-4-yloxy)pyridine-3-sulfonamide] |
| 100 to 500 nM | O=S(=O)(NC1CCN(Cc2cccc(C(F)(F)F)c2)CC1)c1ccc(OC2CCN(c3ccc(C(F)(F)F)cc3)CC2)nc1 [1-59, N-(1-(3-(trifluoromethyl)benzyl)piperidin-4-yl)-6-(1-(4-(trifluoromethyl)phenyl)piperidin-4-yloxy)pyridine-3-sulfonamide] |
| > 10000 nM | O=C(c1ccc(F)cc1)N1CCC(NS(=O)(=O)c2ccc(OC3CCN(c4ccc(C(F)(F)F)cc4)CC3)nc2)CC1 [1-60, N-(1-(4-fluorobenzoyl)piperidin-4-yl)-6-(1-(4-(trifluoromethyl)phenyl)piperidin-4-yloxy)pyridine-3-sulfonamide] |
| 5000 to 10000 nM | Cc1c(C(=O)NC2CCNCC2)oc2cc(OC3CCN(c4ccc(C(F)(F)F)cc4)CC3)ccc12 [1-62, 3-methyl-N-(piperidin-4-yl)-6-(1-(4-(trifluoromethyl)phenyl)piperidin-4-yloxy)benzofuran-2-carboxamide] |
| < 100 nM | Cc1c(C(=O)NC2CCN(Cc3ccccc3C#N)CC2)oc2cc(OC3CCN(c4ccc(C(F)(F)F)cc4)CC3)ccc12 [1-67, N-(1-(2-cyanobenzyl)piperidin-4-yl)-3-methyl-6-(1-(4-(trifluoromethyl)phenyl)piperidin-4-yloxy)benzofuran-2-carboxamide] |
| < 100 nM | Cc1c(C(=O)NC2CCN(Cc3ccccn3)CC2)oc2cc(OC3CCN(c4ccc(C(F)(F)F)cc4)CC3)ccc12 [1-68, 3-methyl-N-(1-(pyridin-2-ylmethyl)piperidin-4-yl)-6-(1-(4-(trifluoromethyl)phenyl)piperidin-4-yloxy)benzofuran-2-carboxamide] |
